We go through 8 compounds from US20100137136A1, “HERBICIDE/SAFENER COMBINATION” (BAYER CROPSCIENCE AG, priority 2008, published 2010).

What all share (type): in vivo
The subject of assay [1] is Corn (Aventura). Nature of the assay: Post-emergence herbicidal effect and safener effect, corn. The following applies: for % Reduction: reduction of effect by safener. Here is the method:
(§1) Seeds or rhizome pieces of mono- and dicotyledonous harmful plants and of crop plants are planted in peat pots in sandy loam, covered with earth and grown in a greenhouse under good growth conditions. Alternatively to this, harmful plants occurring in the paddy rice cultivation are cultivated in pots in which water stands up to 2 cm above the soil surface. 10 to 20 days after sowing, the test plants are treated in the one to three-leaf stage. The herbicide/safener active ingredient combinations according to the invention, formulated as water-soluble powders or suspensions, and, in parallel experiments, the correspondingly formulated individual active ingredients are sprayed onto the green plant parts in various dosages using an application rate of 300 l of water/ha (converted) and, after the test plants have remained in the greenhouse under optimum growth conditions for 2-3 weeks, the effect of the preparations is scored visually in comparison with untreated controls. In the case of rice or in the case of harmful plants which occur in the rice cultivation, the active ingredients are also placed directly into the irrigation water (application analogous to the so-called granules application) or sprayed onto plants and into the irrigation water.

In assay [2] the test system is Wheat (Triso). Nature of the assay: Pre-emergence herbicidal effect and safener effect, wheat. The note with it: for % Reduction: reduction of effect by safener. The text has this:
(§2) Seeds or rhizome pieces of mono- and dicotyledonous weed plants and crop plants were planted in peat pots in sandy loam and covered with earth. The herbicide/safener active ingredient combinations according to the invention, formulated as water-soluble powders or suspensions, and, in parallel experiments, the correspondingly formulated individual active ingredients were then applied to the surface of the covering earth at an application rate of 600 to 800 l of water/ha (converted) in a variety of dosages.

The test system of assay [3] is Rice (Ballila). Nature of the assay: Post-emergence herbicidal effect and safener effect, rice. The following applies: for % effect (with safener) / % Reduction: herbicide I-2 80 g a.i./ha + safener 200 g a.i./ha; for % Reduction: reduction of effect by safener. Here is the method: as §1
For assay [4], the system named is Corn (Aventura). The assay is described as follows: Pre-emergence herbicidal effect and safener effect, corn. The note with it: for % effect (with safener) / % Reduction: herbicide I-2 80 g a.i./ha + safener 200 g a.i./ha; for % Reduction: reduction of effect by safener.
Description: as §2

Assay [5] has as its system Wheat (Triso). Nature of the assay: Post-emergence herbicidal effect and safener effect, wheat. The note with it: for % effect (with safener) / % Reduction: herbicide I-2 20 g a.i./ha + safener 50 g a.i./ha; for % Reduction: reduction of effect by safener. Here is the method: as §1
Assay [6] relates to Barley (Adonis). The assay is described as follows: Post-emergence herbicidal effect and safener effect, barley. The note with it: herbicide 20 g a.i./ha, no safener, scored visually vs untreated controls. Here is the method:
as §1

The mark [7] stands for this setting: herbicide I-2 20 g a.i./ha + safener 50 g a.i./ha.
Where [8] appears, read: herbicide I-2 80 g a.i./ha + safener 200 g a.i./ha.
[9] abbreviates: herbicide I-2 80 g a.i./ha alone.
The mark [10] stands for this setting: herbicide I-2 20 g a.i./ha alone.

With `CC1(C)OC(c2ccco2)CN1C(=O)C(Cl)Cl` (racemic) [Compound S3-10, (RS)-3-dichloroacetyl-5-(2-furyl)-2,2-dimethyloxazolidine], in assay [1] (setting [7]), the “% effect (with safener)” value amounted to 20% and the “% Reduction” value was determined as 50%. Further, in assay [2] (setting [7]), the “% effect (with safener)” value amounted to 10% and the “% Reduction” value stood at 67%.

Regarding `O=C(O)c1nc(C(Cl)(Cl)Cl)n(-c2ccc(Cl)cc2Cl)n1` [Fenchlorazole], in assay [2] (setting [7]), the “% effect (with safener)” value was determined as 10% and the “% Reduction” value was determined as 67%.

`CCOC(=O)C1=NOC(c2ccccc2)(c2ccccc2)C1` [Isoxadifen-ethyl, ethyl 5,5-diphenyl-2-isoxazoline-carboxylate]: the “% effect (with safener)” value in assay [3] was 20%; in assay [4] it was 25%; in assay [5], 0%; in assay [1] (setting [8]) it was 20%; in assay [2] (setting [7]), 10%. The “% Reduction” value in assay [3] is reported as 33%; in assay [4], 29%; in assay [5], 100%; in assay [1] (setting [8]) it was 50%; in assay [2] (setting [7]), 67%.

Regarding `COC(=O)c1nc(C2CC2)cc(N)c1Cl` [Compound I-2, methyl 4-amino-3-chloro-6-cyclopropyl-2-pyridinecarboxylate], the “% effect (without safener)” value in assay [3] (setting [9]) is on record as 30%; in assay [4] (setting [9]) it was 35%; in assay [5] (setting [10]), 20%; in assay [1] (setting [10]), 40%; in assay [1] (setting [9]) it was 40%; in assay [2] (setting [10]), 30%. Further, the “% effect (without safener)” value in assay [2] (setting [9]) is 30%; in assay [6] it was 20%.

As to `CC1COc2ccccc2N1C(=O)C(Cl)Cl` (stereo not drawn) [Compound S3-4, 4-dichloroacetyl-3,4-dihydro-3-methyl-2H-1,4-benzoxazine], in assay [1] (setting [8]), the “% effect (with safener)” value was determined as 10% and the “% Reduction” value came out at 75%.

Regarding `CCCCCC(C)OC(=O)COc1ccc(Cl)c2cccnc12` (stereo not drawn) [Compound S2-1, 1-methylhexyl(5-chloro-8-quinolinoxy)acetate], the “% effect (with safener)” value is given as 10% in assay [3], 20% in assay [1] (setting [7]) and 20% in assay [2] (setting [8]). The entries for the “% Reduction” value in assay [3], in assay [1] (setting [7]) and in assay [2] (setting [8]) were 67%, 50% and 33%, respectively.

With `FC(F)(F)C(=NOCC1OCCO1)c1ccc(Cl)cc1` [Compound S11-2, 1-(4-chlorophenyl)-2,2,2-trifluoro-1-ethanone O-(1,3-dioxolan-2-ylmethyl)oxim], in assay [2] (setting [7]), the “% effect (with safener)” value amounted to 20% and the “% Reduction” value is 33%.

Take `CCOC(=O)C1=NN(c2ccc(Cl)cc2Cl)C(C)(C(=O)OCC)C1` (stereo not drawn) [Mefenpyr-diethyl, ethyl 1-(2,4-dichlorophenyl)-5-(ethoxycarbonyl)-5-methyl-2-pyrazoline-3-carboxylate]: the “% effect (with safener)” value in assay [4] was 20%; in assay [5], 0%; in assay [1] (setting [7]), 20%; in assay [2] (setting [7]), 20%. Moreover, the “% Reduction” value in assay [4] is on record as 43%; in assay [5] it was 100%; in assay [1] (setting [7]), 50%; in assay [2] (setting [7]), 33%.
